{"source": "paper PMC8593015", "about": "(Scientific Reports, 2021)", "key": {"M. tb EgtD": {"target": "T1, M. tb EgtD (Mycobacterium tuberculosis, UniProt P9WN47)", "T1 construct": "thioredoxin (N, cleaved yes); polyhistidine (N, cleaved yes); made in house; host or cells: E. coli (T7 cells), pET32-derived vector", "T1 sequence (P9WN47 1-321)": "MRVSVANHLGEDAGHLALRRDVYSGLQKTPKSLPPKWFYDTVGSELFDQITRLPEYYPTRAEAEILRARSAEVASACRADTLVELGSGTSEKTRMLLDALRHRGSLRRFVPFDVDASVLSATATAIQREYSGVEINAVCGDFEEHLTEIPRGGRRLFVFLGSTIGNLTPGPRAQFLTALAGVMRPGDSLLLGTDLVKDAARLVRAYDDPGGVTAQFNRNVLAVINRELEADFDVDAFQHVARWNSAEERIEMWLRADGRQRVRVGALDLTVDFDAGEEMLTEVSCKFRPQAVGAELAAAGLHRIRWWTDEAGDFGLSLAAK", "assay": "biochemical"}, "M. tb": {"tested_on": "M. tb", "parameters": "method as in PMID 22100163, PMID 24586159, PMID 22988030", "conditions": "macrophage cells and infected mice; cited from earlier work"}, "[1]": {"tested_on": "Mycobacterium marinum (M. marinum)", "conditions": "cited from earlier work"}}, "note": "“And” between values parts separate entries of the source, which are not always exact repeats. Equal values may be shown once."}
{"smiles": "CS(=O)(=O)c1ccc(-c2nc(-c3ccc(F)cc3)c(-c3ccncc3)[nH]2)cc1", "note": "[Cay-10571, reference compound]", "values": [{"measurement": "EC50", "setting": "M. tb EgtD", "result": "< 20 µM and 7 µM"}]}
{"smiles": "O=C(O)CNc1cccc(C(=O)NCCc2c[nH]cn2)c1", "note": "[HD1]", "values": [{"measurement": "EC50", "setting": "M. tb EgtD", "result": "89 ± 19", "unit": "µM"}]}
{"smiles": "O=C(O)C(Cc1cnc[nH]1)n1cccc1", "note": "(centres unmarked) [HD2]", "values": [{"measurement": "EC50", "setting": "M. tb EgtD", "result": "33 ± 3", "unit": "µM"}]}
{"smiles": "O=C(O)C(Cc1cnc[nH]1)NC(=S)NCc1ccccc1", "note": "(centres unmarked) [HD3]", "values": [{"measurement": "EC50", "setting": "M. tb EgtD", "result": "47 ± 5", "unit": "µM"}]}
{"smiles": "CCOc1ccccc1CN(CC)C(=O)[C@H](N)Cc1c[nH]cn1", "note": "[HD4]", "values": [{"measurement": "EC50", "setting": "M. tb EgtD", "result": "25 ± 4", "unit": "µM"}]}
{"smiles": "CN(Cc1ccc(Oc2ccccc2)cc1)C(=O)[C@H](N)Cc1c[nH]cn1", "note": "[HD5]", "values": [{"measurement": "EC50", "setting": "M. tb EgtD", "result": "30 ± 3", "unit": "µM"}]}
{"smiles": "O=C(N[C@@H](Cc1c[nH]cn1)C(=O)O)C1CC=CC1", "note": "[HD6]", "values": [{"measurement": "EC50", "setting": "M. tb EgtD", "result": "85 ± 19", "unit": "µM"}, {"measurement": "fold decrease in inhibitory activity versus HD2 and HD3", "setting": "M. tb EgtD; ratio of EC50 values", "result": "1.5–2.5 fold"}]}
{"smiles": "CN(C)CCN(Cc1cnc[nH]1)C(=O)CN(C)Cc1ccccc1", "note": "[HD7]", "values": [{"measurement": "EC50", "setting": "M. tb EgtD", "result": "85 ± 12", "unit": "µM"}]}
{"smiles": "Cc1ccc(C(C)C(=O)N(CCN(C)C)Cc2cnc[nH]2)cc1", "note": "(centres unmarked) [HD8]", "values": [{"measurement": "EC50", "setting": "M. tb EgtD", "result": "160 ± 60", "unit": "µM"}]}
{"smiles": "CCOc1ccccc1OCCN(C)Cc1cnc[nH]1", "note": "[HD9]", "values": [{"measurement": "EC50", "setting": "M. tb EgtD", "result": "36 ± 4", "unit": "µM"}]}
{"smiles": "Cc1cccc(C(C(=O)NCCc2c[nH]cn2)N(C)C)c1", "note": "(centres unmarked) [HD10]", "values": [{"measurement": "EC50", "setting": "M. tb EgtD", "result": "32 ± 4", "unit": "µM"}]}
{"smiles": "Cc1ccc(NC(=O)c2ccc(CN3CCN(C)CC3)cc2)cc1Nc1nccc(-c2cccnc2)n1", "note": "[Imatinib]", "values": [{"measurement": "intracellular replication of M. tb", "setting": "M. tb", "result": "decrease in the intracellular replication"}, {"measurement": "effect of combination with Rifampicin", "setting": "[1]; M. marinum-infected macrophage cells, Imatinib and Rifampicin", "result": "synergistic effect"}, {"measurement": "intracellular replication of M. marinum", "setting": "[1]; macrophage cells and infected mice", "result": "decrease in the intracellular replication"}]}
{"smiles": "O=c1cc(N2CCOCC2)oc2c1ccc1ccccc12", "note": "[NU-7026, reference compound]", "values": [{"measurement": "EC50", "setting": "M. tb EgtD", "result": "< 20 µM and 5.4 µM"}]}
{"smiles": "Cc1cc(C(C)Nc2ccccc2)c2nc(N3CCOCC3)cc(=O)n2c1", "note": "(centres unmarked) [TGX-221, reference compound]", "values": [{"measurement": "EC50", "setting": "M. tb EgtD", "result": "< 20 µM and 15.2 µM"}]}
